Test results published in US20110039721A1, “METHOD FOR PREDICTION ABOUT CARCINOGENICITY OF SUBSTANCE IN RODENT” (Chemicals Evaluation and Research Institute, priority 2007, published 2011).

What was measured:
[1] = system: mRNA expressed from the genes (A) to (D) in rat liver; experiment: Behavior of genes (mRNA expression level, oligo-DNA microarray) in rat liver after 28-day oral administration; assay type: in vivo; conditions: for Behavior of gene caused by administration of chemical substance, Gene No. 4846 / Behavior of gene caused by administration of chemical substance, Gene No. 2026 / Behavior of gene caused by administration of chemical substance, Gene No. 4218 / Behavior of gene caused by administration of chemical substance, Gene No. 6182 / Behavior of gene caused by administration of chemical substance, Gene No. 5600: gene group (A); for Behavior of gene caused by administration of chemical substance, Gene No. 4846: Unigene No. Rn.144554; for Behavior of gene caused by administration of chemical substance, Gene No. 2026 / Behavior of gene caused by administration of chemical substance, Gene No. 4218: Unigene No. Rn.167075; for Behavior of gene caused by administration of chemical substance, Gene No. 6182: Unigene No. Rn.5834; for Behavior of gene caused by administration of chemical substance, Gene No. 5600: Unigene No. Rn.9836; for Behavior of gene caused by administration of chemical substance, Gene No. 1494 / Behavior of gene caused by administration of chemical substance, Gene No. 2045 / Behavior of gene caused by administration of chemical substance, Gene No. 2203: gene group (B); for Behavior of gene caused by administration of chemical substance, Gene No. 1494: Unigene No. Rn.1430; for Behavior of gene caused by administration of chemical substance, Gene No. 2045: Unigene No. Rn.19329; for Behavior of gene caused by administration of chemical substance, Gene No. 2203: Unigene No. Rn.21240; for Behavior of gene caused by administration of chemical substance, Gene No. 533 / Behavior of gene caused by administration of chemical substance, Gene No. 725 / Behavior of gene caused by administration of chemical substance, Gene No. 1163 / Behavior of gene caused by administration of chemical substance, Gene No. 4973 / Behavior of gene caused by administration of chemical substance, Gene No. 4095 / Behavior of gene caused by administration of chemical substance, Gene No. 1334 / Behavior of gene caused by administration of chemical substance, Gene No. 6620 / Behavior of gene caused by administration of chemical substance, Gene No. 6303 / Behavior of gene caused by administration of chemical substance, Gene No. 5878 / Behavior of gene caused by administration of chemical substance, Gene No. 1131 / Behavior of gene caused by administration of chemical substance, Gene No. 1562 / Behavior of gene caused by administration of chemical substance, Gene No. 1741 / Behavior of gene caused by administration of chemical substance, Gene No. 893 / Behavior of gene caused by administration of chemical substance, Gene No. 6026 / Behavior of gene caused by administration of chemical substance, Gene No. 154 / Behavior of gene caused by administration of chemical substance, Gene No. 1993 / Behavior of gene caused by administration of chemical substance, Gene No. 813 / Behavior of gene caused by administration of chemical substance, Gene No. 2494 / Behavior of gene caused by administration of chemical substance, Gene No. 2546 / Behavior of gene caused by administration of chemical substance, Gene No. 3776 / Behavior of gene caused by administration of chemical substance, Gene No. 3929 / Behavior of gene caused by administration of chemical substance, Gene No. 1119 / Behavior of gene caused by administration of chemical substance, Gene No. 6742 / Behavior of gene caused by administration of chemical substance, Gene No. 5634: gene group (C); for Behavior of gene caused by administration of chemical substance, Gene No. 533: Unigene No. Rn.106184; for Behavior of gene caused by administration of chemical substance, Gene No. 725: Unigene No. Rn.108075; for Behavior of gene caused by administration of chemical substance, Gene No. 1163: Unigene No. Rn.11766; for Behavior of gene caused by administration of chemical substance, Gene No. 4973: Unigene No. Rn.118529; for Behavior of gene caused by administration of chemical substance, Gene No. 4095: Unigene No. Rn.119024; for Behavior of gene caused by administration of chemical substance, Gene No. 1334 / Behavior of gene caused by administration of chemical substance, Gene No. 6620: Unigene No. Rn.120914; for Behavior of gene caused by administration of chemical substance, Gene No. 6303: Unigene No. Rn.123063; for Behavior of gene caused by administration of chemical substance, Gene No. 5878: Unigene No. Rn.143213; for Behavior of gene caused by administration of chemical substance, Gene No. 1131: Unigene No. Rn.144946; for Behavior of gene caused by administration of chemical substance, Gene No. 1562: Unigene No. Rn.14744; for Behavior of gene caused by administration of chemical substance, Gene No. 1741: Unigene No. Rn.1647; for Behavior of gene caused by administration of chemical substance, Gene No. 893: Unigene No. Rn.164817; for Behavior of gene caused by administration of chemical substance, Gene No. 6026: Unigene No. Rn.167685; for Behavior of gene caused by administration of chemical substance, Gene No. 154: Unigene No. Rn.185941; for Behavior of gene caused by administration of chemical substance, Gene No. 1993: Unigene No. Rn.18728; for Behavior of gene caused by administration of chemical substance, Gene No. 813: Unigene No. Rn.201760; for Behavior of gene caused by administration of chemical substance, Gene No. 2494: Unigene No. Rn.23969; for Behavior of gene caused by administration of chemical substance, Gene No. 2546: Unigene No. Rn.24561; for Behavior of gene caused by administration of chemical substance, Gene No. 3776: Unigene No. Rn.43232; for Behavior of gene caused by administration of chemical substance, Gene No. 3929: Unigene No. Rn.4620; for Behavior of gene caused by administration of chemical substance, Gene No. 1119: Unigene No. Rn.9757; for Behavior of gene caused by administration of chemical substance, Gene No. 6742: Unigene No. Rn.9779; for Behavior of gene caused by administration of chemical substance, Gene No. 5634: Unigene No. Rn.9862; for Behavior of gene caused by administration of chemical substance, Gene No. 5726: gene group (D), Unigene No. Rn.9939
Outline: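 Liver mRNA measured by oligo-DNA microarray after 28 days of once-daily oral gavage in 5-week-old male F344 rats (n=4 per group), with vehicle controls given equal solvent volume. Significance threshold: 1.5-fold up or down versus control, with changes opposite in direction to other carcinogens counted as not significant.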

liver = conditions: in vivo; cited from earlier work
rodent = conditions: in vivo; cited from earlier work

## Nc1ccc(N)c(Cl)c1.O=S(=O)(O)O [TS058, 2-Chloro-p-phenylenediamine SO4]
[1]
  Behavior of gene caused by administration of chemical substance, Gene No. 4846: −
  Behavior of gene caused by administration of chemical substance, Gene No. 2026: −
  Behavior of gene caused by administration of chemical substance, Gene No. 4218: −
  Behavior of gene caused by administration of chemical substance, Gene No. 6182: −
  Behavior of gene caused by administration of chemical substance, Gene No. 5600: −
  Behavior of gene caused by administration of chemical substance, Gene No. 1494: −
  Behavior of gene caused by administration of chemical substance, Gene No. 2045: +
  Behavior of gene caused by administration of chemical substance, Gene No. 2203: −
  Behavior of gene caused by administration of chemical substance, Gene No. 533: −
  Behavior of gene caused by administration of chemical substance, Gene No. 725: −
  Behavior of gene caused by administration of chemical substance, Gene No. 1163: +
  Behavior of gene caused by administration of chemical substance, Gene No. 4973: −
  Behavior of gene caused by administration of chemical substance, Gene No. 4095: −
  Behavior of gene caused by administration of chemical substance, Gene No. 1334: −
  Behavior of gene caused by administration of chemical substance, Gene No. 6620: −
  Behavior of gene caused by administration of chemical substance, Gene No. 6303: −
  Behavior of gene caused by administration of chemical substance, Gene No. 5878: −
  Behavior of gene caused by administration of chemical substance, Gene No. 1131: −
  Behavior of gene caused by administration of chemical substance, Gene No. 1562: −
  Behavior of gene caused by administration of chemical substance, Gene No. 1741: −
  Behavior of gene caused by administration of chemical substance, Gene No. 893: −
  Behavior of gene caused by administration of chemical substance, Gene No. 6026: −
  Behavior of gene caused by administration of chemical substance, Gene No. 154: +
  Behavior of gene caused by administration of chemical substance, Gene No. 1993: −
  Behavior of gene caused by administration of chemical substance, Gene No. 813: −
  Behavior of gene caused by administration of chemical substance, Gene No. 2494: +
  Behavior of gene caused by administration of chemical substance, Gene No. 2546: +
  Behavior of gene caused by administration of chemical substance, Gene No. 3776: −
  Behavior of gene caused by administration of chemical substance, Gene No. 3929: −
  Behavior of gene caused by administration of chemical substance, Gene No. 1119: +
  Behavior of gene caused by administration of chemical substance, Gene No. 6742: −
  Behavior of gene caused by administration of chemical substance, Gene No. 5634: +
  Behavior of gene caused by administration of chemical substance, Gene No. 5726: −
liver
  Liver carcinogenicity: Cr−
rodent
  Carcinogenicity: C−

## Cc1c(N)cccc1N [TS005, 2,6-Diaminotoluene]
[1]; mRNA vs vehicle control group
  Behavior of gene caused by administration of chemical substance, Gene No. 4846: −
  Behavior of gene caused by administration of chemical substance, Gene No. 2026: −
  Behavior of gene caused by administration of chemical substance, Gene No. 4218: −
  Behavior of gene caused by administration of chemical substance, Gene No. 6182: −
  Behavior of gene caused by administration of chemical substance, Gene No. 5600: −
  Behavior of gene caused by administration of chemical substance, Gene No. 1494: −
  Behavior of gene caused by administration of chemical substance, Gene No. 2045: −
  Behavior of gene caused by administration of chemical substance, Gene No. 2203: −
  Behavior of gene caused by administration of chemical substance, Gene No. 533: −
  Behavior of gene caused by administration of chemical substance, Gene No. 725: −
  Behavior of gene caused by administration of chemical substance, Gene No. 1163: −
  Behavior of gene caused by administration of chemical substance, Gene No. 4973: −
  Behavior of gene caused by administration of chemical substance, Gene No. 4095: −
  Behavior of gene caused by administration of chemical substance, Gene No. 1334: −
  Behavior of gene caused by administration of chemical substance, Gene No. 6620: −
  Behavior of gene caused by administration of chemical substance, Gene No. 6303: −
  Behavior of gene caused by administration of chemical substance, Gene No. 5878: −
  Behavior of gene caused by administration of chemical substance, Gene No. 1131: +
  Behavior of gene caused by administration of chemical substance, Gene No. 1562: −
  Behavior of gene caused by administration of chemical substance, Gene No. 1741: −
  Behavior of gene caused by administration of chemical substance, Gene No. 893: −
  Behavior of gene caused by administration of chemical substance, Gene No. 6026: −
  Behavior of gene caused by administration of chemical substance, Gene No. 154: −
  Behavior of gene caused by administration of chemical substance, Gene No. 1993: −
  Behavior of gene caused by administration of chemical substance, Gene No. 813: −
  Behavior of gene caused by administration of chemical substance, Gene No. 2494: −
  Behavior of gene caused by administration of chemical substance, Gene No. 2546: −
  Behavior of gene caused by administration of chemical substance, Gene No. 3776: −
  Behavior of gene caused by administration of chemical substance, Gene No. 3929: −
  Behavior of gene caused by administration of chemical substance, Gene No. 1119: −
  Behavior of gene caused by administration of chemical substance, Gene No. 6742: −
  Behavior of gene caused by administration of chemical substance, Gene No. 5634: −
  Behavior of gene caused by administration of chemical substance, Gene No. 5726: −
liver
  Liver carcinogenicity: Cr−
rodent
  Carcinogenicity: C−
